We go through 36 substances from patent publication US9999659B2, “Treatments using a peptide and/or vaccine” (AFFIRIS AG, priority 2012, dated 2018).

In assay [1] the test system is polyclonal antibodies in mouse sera raised against original PCSK9 sequence (aa 153-162 or aa 153-165). Kind of assay: Competition ELISA: mimotope competes with the original PCSK9 sequence for binding of polyclonal antibodies in mouse sera. As to conditions: 20 μg peptide incubated with sera; irrelevant peptide = 0% competition. An excerpt: FIGS. 2A and 2B show the ability of PCSK9 mimotopes to compete with the original PCSK9 sequence (aa 153-162 or aa 153-165) for binding polyclonal antibodies in mouse sera raised specifically against the latter.
All mimotopes are compared to the negative group (0% competition by an irrelevant peptide). As a positive control for each competition ELISA the original PCSK9 sequences were used (aa 153-162 or aa 153-165).
The graphs display the ability (in percent) of the mimotopes to compete with the original PCSK9 sequence (aa 153-162 or aa 153-165) for binding polyclonal antibodies raised against the latter.
20 μg of each indicated peptide was incubated with sera from mice injected with original PCSK9 sequence (aa 153-162 or aa 153-165: SEQ ID No. 2). Sera were then incubated on ELISA plates coated with the original PCSK9 sequence (aa 153-162 or aa 153-165: SEQ ID No. 2). Detection was performed with anti-mouse IgG antibodies, ABTS was used as a chromogenic substrate and optical density (OD) was measured at 405 nm.
Mimotopes diminishing >20% subsequent binding of the polyclonal antibodies from the sera to the original human PCSK9 epitope (aa 153-162 or 153-165: SEQ ID No. 3) coated on the ELISA plates were considered as competing mimotopes and as good candidates.

In assay [2] the test system is polyclonal antibodies specific for human PCSK9 aa 153-162 or aa 153-165. Kind of assay: Binding ELISA: mimotopes coated on plates, detected by mouse sera raised against the original PCSK9 sequence. The note with it: mimotope coated at 1 μmol/mL; titer = serum dilution where 50% of ODmax is reached. From the text:
FIGS. 1A and 1B show detection of PCSK9 mimotopes sequences by mouse sera containing polyclonal antibodies specific for human PCSK9 aa 153-162 or aa 153-165
The graphs display median titers from all mimotopes compared to the irrelevant negative control. As a positive control the original human PCSK9 sequence is included: aa 153-162 or aa 153-165. Mimotopes with values over 1:50.000 are considered as good candidates.
Mimotopes were coated on ELISA plates at a concentration of 1 μmol/mL. After blocking unspecific binding (1% BSA in PBS) appropriate dilutions of sera from mice injected with the original human PCSK9 sequence aa 153-162 or aa 153-165 (SEQ ID No. 3) were added and incubated for approximately 1 hour. Subsequently, detection with anti-mouse IgG antibodies was performed. ABTS was used as substrate. OD measurements were performed at 405 nm and titers were defined as the dilution of the serum where 50% of the ODmax is reached.
Background: In an ELISA, binding on a coated surface is turned into a signal by an enzyme label.

With 3 (ERTKSDPGAQHREF) [compound 3], in assay [1], the “% Competition compared to the related control group” value (shortened to “% Competition”) is 0%.

As to 4 (ITELSRWPNI) [compound 4], the “% Competition” value in assay [1] came to 0%.

“5 (TIPWNLERIT; Artificial Sequence, Mimotope) [compound 5]”: the “% Competition” value in assay [1] is reported as 52%. For the same substance, the “Median Titer Binding ELISA (ODmax/2)” value in assay [2] is given as 198,000.

With “6 (VIPWNLERIT; Artificial Sequence, Mimotope) [compound 6]”, in assay [1], the “% Competition” value worked out at 51%. The “Median Titer Binding ELISA (ODmax/2)” value in assay [2] was 12,000.

Take “7 (AIPWNLERIT; Artificial Sequence, Mimotope) [compound 7]”: in assay [1], the “% Competition” value is listed as 88%. In addition, the “Median Titer Binding ELISA (ODmax/2)” value in assay [2] is 199,000.

For the substance “8 (SVPWNLERIT; Artificial Sequence, Mimotope) [compound 8]”, the “% Competition” value in assay [1] came to 62%. Also, the “Median Titer Binding ELISA (ODmax/2)” value in assay [2] is listed as 197,000.

“9 (SQPWNLERIT; Artificial Sequence, Mimotope) [compound 9]”: the “% Competition” value in assay [1] was found to be 30%. Moreover, the “Median Titer Binding ELISA (ODmax/2)” value in assay [2] is given as 149,000.

In the case of “10 (SAPWNLERIT; Artificial Sequence, Mimotope) [compound 10]”, in assay [1], the “% Competition” value worked out at 76%. Also, in assay [2], the “Median Titer Binding ELISA (ODmax/2)” value is listed as 131,000.

On to “11 (SGPWNLERITPPR; Artificial Sequence, Mimotope) [compound 11]”, for which the “% Competition” value in assay [1] came out at 54%. In addition, the “Median Titer Binding ELISA (ODmax/2)” value in assay [2] is 81,000.

As for “12 (SITWNLERIT; Artificial Sequence, Mimotope) [compound 12]”, the “% Competition” value in assay [1] is 62%. Moreover, the “Median Titer Binding ELISA (ODmax/2)” value in assay [2] was 124,000.

As for “13 (SIAWNLERIT; Artificial Sequence, Mimotope) [compound 13]”, the “% Competition” value in assay [1] was determined as 78%. In addition, the “Median Titer Binding ELISA (ODmax/2)” value in assay [2] is 147,000.

For the substance “14 (SIVWNLERITPPR; Artificial Sequence, Mimotope) [compound 14]”, the “% Competition” value in assay [1] is given as 78%. Besides, the “Median Titer Binding ELISA (ODmax/2)” value in assay [2] was 146,000.

Regarding “15 (SIPFNLERIT; Artificial Sequence, Mimotope) [compound 15]”, the “% Competition” value in assay [1] came out at 15%. The “Median Titer Binding ELISA (ODmax/2)” value in assay [2] was 42,000.

On to “16 (SIPANLERIT; Artificial Sequence, Mimotope) [compound 16]”, for which the “% Competition” value in assay [1] is on record as 8%. Besides, the “Median Titer Binding ELISA (ODmax/2)” value in assay [2] is listed as 22,000.

As to “17 (SIPGNLERIT; Artificial Sequence, Mimotope) [compound 17]”, the “% Competition” value in assay [1] came to 0%. Besides, the “Median Titer Binding ELISA (ODmax/2)” value in assay [2] is given as 21,000.

Take “18 (SIPHNLERIT; Artificial Sequence, Mimotope) [compound 18]”: in assay [1], the “% Competition” value was determined as 0%. Further, in assay [2], the “Median Titer Binding ELISA (ODmax/2)” value is reported as 23,000.

Consider “19 (SIPDNLERIT; Artificial Sequence, Mimotope) [compound 19]”, for which, in assay [1], the “% Competition” value came out at 3%. In addition, the “Median Titer Binding ELISA (ODmax/2)” value in assay [2] is given as 23,000.

Turning to “20 (SIPSNLERIT; Artificial Sequence, Mimotope) [compound 20]”, the “% Competition” value in assay [1] was determined as 7%. Besides, the “Median Titer Binding ELISA (ODmax/2)” value in assay [2] is recorded as 22,000.

Regarding “21 (SIPWSLERIT; Artificial Sequence, Mimotope) [compound 21]”, the “% Competition” value in assay [1] stood at 73%. In addition, the “Median Titer Binding ELISA (ODmax/2)” value in assay [2] is reported as 147,000.

Regarding “22 (SIPWALERIT; Artificial Sequence, Mimotope) [compound 22]”, the “% Competition” value in assay [1] is 75%. In addition, in assay [2], the “Median Titer Binding ELISA (ODmax/2)” value is reported as 157,000.

For “23 (SIPWQLERITPPR; Artificial Sequence, Mimotope) [compound 23]”, in assay [1], the “% Competition” value is reported as 79%. Further, the “Median Titer Binding ELISA (ODmax/2)” value in assay [2] is 224,000.

Regarding “24 (SIPWDLERITPPR; Artificial Sequence, Mimotope) [compound 24]”, the “% Competition” value in assay [1] was 74%. Moreover, the “Median Titer Binding ELISA (ODmax/2)” value in assay [2] was 231,000.

“25 (SIPWNAERIT; Artificial Sequence, Mimotope) [compound 25]”: the “% Competition” value in assay [1] came out at 73%. Moreover, the “Median Titer Binding ELISA (ODmax/2)” value in assay [2] is 156,000.

Take “26 (SIPWNGERIT; Artificial Sequence, Mimotope) [compound 26]”: the “% Competition” value in assay [1] is given as 52%. The “Median Titer Binding ELISA (ODmax/2)” value in assay [2] is recorded as 56,000.

As for “27 (SIPWNYERIT; Artificial Sequence, Mimotope) [compound 27]”, the “% Competition” value in assay [1] was determined as 76%. For the same substance, in assay [2], the “Median Titer Binding ELISA (ODmax/2)” value is recorded as 115,000.

For the substance “28 (SIPWNDERIT; Artificial Sequence, Mimotope) [compound 28]”, the “% Competition” value in assay [1] was 71%. Moreover, the “Median Titer Binding ELISA (ODmax/2)” value in assay [2] is given as 131,000.

“29 (SIPWNFERITPPR; Artificial Sequence, Mimotope) [compound 29]”: the “% Competition” value in assay [1] turned out to be 79%. Moreover, the “Median Titer Binding ELISA (ODmax/2)” value in assay [2] was 186,000.

As to “30 (SIPWNVERITPPR; Artificial Sequence, Mimotope) [compound 30]”, the “% Competition” value in assay [1] was found to be 78%. The “Median Titer Binding ELISA (ODmax/2)” value in assay [2] is given as 197,000.

In the case of “31 (SIPWNLARIT; Artificial Sequence, Mimotope) [compound 31]”, the “% Competition” value in assay [1] was determined as 13%. Further, the “Median Titer Binding ELISA (ODmax/2)” value in assay [2] is 34,000.

As to “32 (SIPWNLDRITPPR; Artificial Sequence, Mimotope) [compound 32]”, the “% Competition” value in assay [1] is 53%. In assay [2], the “Median Titer Binding ELISA (ODmax/2)” value is given as 151,000.

In the case of “33 (SIPWNLEKIT; Artificial Sequence, Mimotope) [compound 33]”, the “% Competition” value in assay [1] is reported as 19%. Besides, in assay [2], the “Median Titer Binding ELISA (ODmax/2)” value is on record as 59,000.

On to “34 (SIPWNLEAIT; Artificial Sequence, Mimotope) [compound 34]”, for which the “% Competition” value in assay [1] worked out at 15%. The “Median Titer Binding ELISA (ODmax/2)” value in assay [2] is reported as 54,000.

For the substance “35 (SIPWNLEDIT; Artificial Sequence, Mimotope) [compound 35]”, the “% Competition” value in assay [1] is on record as 13%. Also, in assay [2], the “Median Titer Binding ELISA (ODmax/2)” value was 48,000.

With “36 (SIPWNLERLT; Artificial Sequence, Mimotope) [compound 36]”, the “% Competition” value in assay [1] is 76%. In addition, the “Median Titer Binding ELISA (ODmax/2)” value in assay [2] is recorded as 192,000.

“37 (SIPWNLERTT; Artificial Sequence, Mimotope) [compound 37]”: the “% Competition” value in assay [1] was determined as 73%. Also, the “Median Titer Binding ELISA (ODmax/2)” value in assay [2] was 177,000.

For the substance “38 (SIPWNLERAT; Artificial Sequence, Mimotope) [compound 38]”, the “% Competition” value in assay [1] worked out at 77%. Also, the “Median Titer Binding ELISA (ODmax/2)” value in assay [2] is 149,000.
